No end group written: not given here.
Target: T1, main protease (M^pro) of SARS-CoV2 virus (Severe acute respiratory syndrome coronavirus 2, UniProt P0DTD1)
T1 construct: 30 μl of 3CL Protease enzyme solution (0.05 ng/ul) was mixed with 10 μl of peptides; purchased BPS Bioscience 78042-1
Assay: biochemical

| Sequence | IC50 |
| --- | --- |
| PVHPQMQTETGTAHC [Peptide M14] | 1200 µM |
| RQDLDYQRRRGAGISSTLVQSRK [Peptide M3] | 750 µM |

— patent publication US20240060986A1, “METHOD FOR SELECTING PEPTIDE […] ON PROTEIN CYTOTOXICITY” (priority 2022, published 2024)
